How the values were obtained:
WSU-NHL = test: Anti-proliferation assay (CellTiter-Glo), WSU-NHL; assay type: cell-based; conditions: 96 hour treatment
Experimental: (§1) Commercially available 6 B cell lymphoma cancer cell lines DOHH-2 (DSMZ, #ACC 47), NALM-6 (DSMZ, #ACC 58), Ramos (ECACC, #85030802), SU-DHL-6 (ATCC, #CRL-2959), WSU-DLCL2 (DSMZ, #ACC 575) and WSU-NHL (DSMZ, #ACC 58) were used. SG2057 was used as the drug, free toxin. Each of the cancer cell lines was seeded in a 96-well plate at 2000 to 10000 per well for the 96 hour treatment group, incubated for 2 hours, and then treated with drug and ADC at a concentration of from 0.00025 to 100 nM (5-fold times serial dilutions). After 96 hours, the number of living cells was quantified using CellTiter-Glo Luminescent cell viability assay (Promega-G7573). Inhibition rate (IR) of the drug and ADC were determined by the following formula: IR (%)=(1−(RLU compound−RLU blank)/(RLU control−RLU blank))*100%. The inhibitions of different dose of samples were calculated in Excel file, and then were used to plot inhibition curve and evaluate related parameters, such as Bottom (%), Top (%) and Relative IC50. The IC50 for each experiment and treatment was calculated (See table below).

DOHH2 = test: Anti-proliferation assay (CellTiter-Glo), DOHH2; assay type: cell-based; conditions: DOHH2, 96 hour treatment
Experimental: as §1

WSU-DLCL2 = test: Anti-proliferation assay (CellTiter-Glo), WSU-DLCL2; assay type: cell-based; conditions: WSU-DLCL2, 96 hour treatment
Experimental: as §1

Ramos = test: Anti-proliferation assay (CellTiter-Glo), Ramos; assay type: cell-based, human; conditions: 96 hour treatment
Experimental: as §1

SU-DHL-6 = test: Anti-proliferation assay (CellTiter-Glo), SU-DHL-6; assay type: cell-based, human; conditions: SU-DHL-6, 96 hour treatment
Experimental: as §1

NALM6 = test: Anti-proliferation assay (CellTiter-Glo), NALM6; assay type: cell-based, human; conditions: NALM6, 96 hour treatment
Experimental: as §1

[1] = tested on: Ramos Burkitt's lymphoma cells; test: Ramos non-Hodgkin lymphoma xenograft model; conditions: Ramos s.c. xenograft, i.v. treatment
Experimental: Anti-tumor activity of anti-CD19 (9G8) Antibody Drug Conjugate was evaluated in immunodeficient CB-17 scid mice subcutaneously engrafted with Ramos Burkitt's lymphoma cells.
CB17-SCID mice (Charles River), aged 7 weeks, were implanted subcutaneously (s.c.) in the right flank with 5×10^6 Ramos cells (obtained from ATCC). Tumor volumes (calculated using the formula TV=(0.5×[length×width^2]) were measured by digital caliper 3 times a week and mice were recruited for treatment when tumor volumes reached 200-250 mm^3. Mice were assigned to different groups (see table below) in order to obtain homogeneous mean tumor volumes between cohorts (n=7-8 mice per group. Mean tumor volume: hIgG1 control 1 mg/kg, 1 inj.: 243 mm^3±26; anti-CD19 CaaX 1 mg/kg, 1 inj.: 233 mm^3±18; hIgG1 ADC 1 mg/kg, 1 inj.: 224 mm^3±20; anti CD19 ADC 0.33 mg/kg, 1 inj.: 242 mm^3±28; anti CD19 ADC 0.66 mg/kg, 1 inj.: 234 mm^3±23; anti CD19 ADC 1 mg/kg, 1 inj.: 234 mm^3±31; anti CD19 ADC 0.33 mg/kg 1 inj./week during 3 weeks: 251 mm^3±25; rituximab 6 mg/kg, 1 inj.: 242 mm^3±31). Single dose or multiple dose (only for cohort anti-CD19 ADC 0.33 mg/kg 1×/week, 3 weeks) treatments were injected i.v. in the tail vein. Mice were then monitored for body weight 3 times a week and for tumor growth 3 times a week until the endpoint of the experiment (tumor volume=1500 mm^3).

cynomolgus CD19 = test: FACS binding to CHO cell line transfected with cynomolgus CD19; set-up: species or system cynomolgus monkey; conditions: transfected CHO cynoCD19 cells, 10 to 0.01 μg/mL
Experimental: The ability of the anti-CD19 antibodies to bind human and/or cynomolgus monkey CD19 was evaluated.
In particular, the human IgG1 5F5, 7F11, 9G8, F6, 7F1, and 10D8 anti-CD19 antibodies were evaluated for their abilities to bind a CHO cell line transfected with cynomolgus CD19 and a negative control cell line (CHO). All incubations were prepared in FACS buffer (PBS, BSA 2%) at 4° C. Fc receptors on B cells were blocked with 10% mouse serum. Four doses of hIgG1 were tested: 10, 1, 0.1 and 0.01 μg/mL.

[2] = tested on: human B lymphocyte cell lines: Raji, Ramos, Nalm6, Su-DHL6, Su-DHL4, and Mec2; test: FACS binding to human B lymphocyte cell lines; conditions: comparison of cell lines
Experimental: The ability of various anti-CD19 antibodies of the disclosure to bind various human B lymphocyte cell lines was evaluated. In particular, the human IgG1 5F5, 7F11, 9G8, F6, 7F1, and 10D8 anti-CD19 antibodies were evaluated for their abilities to bind (i) six human B lymphocyte cell lines: Raji, Ramos, Nalm6, Su-DHL6, Su-DHL4, and Mec2, (ii) a CD19 silenced B cell line: Raji siRNA; and a negative cell line (Jurkat). All incubations were prepared in FACS buffer (PBS, BSA 2%) at 4° C. Fc receptors on B cells were blocked with 10% mouse serum. Four doses of hIgG1 were tested: 10, 1, 0.1 and 0.01 μg/mL. Cell surface bound hIgG1 were detected with a mouse anti-human IgG Fc-PE mAb.

**Q.** With `C=C1C[C@H]2C=Nc3cc(OCCCCCOc4cc5c(cc4OC)C(=O)N4CC(=C)C[C@H]4C=N5)c(OC)cc3C(=O)N2C1` [Free dPBD (SG2057), SG2057] as the molecule, how does the IC50 (WSU-NHL) read?
**A.** The IC50 was 13 pM.

**Q.** And the IC50 (DOHH2)?
**A.** Its IC50 is 5.4 pM.

**Q.** What about the IC50 (WSU-DLCL2) of the same molecule?
**A.** Its IC50 is 4 pM.

**Q.** What about the IC50 (Ramos) of the same molecule?
**A.** Its IC50 is 150 pM.

**Q.** What about the IC50 (SU-DHL-6) of the same molecule?
**A.** Its IC50 is 50 pM.

**Q.** What about the IC50 (NALM6) of the same molecule?
**A.** Its IC50 is 3.5 pM.

**Q.** Which results are given for rituximab?
**A.** mice reaching the tumor size endpoint (tumor volume=1500 mm^3) [1]: four of seven mice reached the endpoint; survival to day 70 ([1]; rituximab 6 mg/kg single): three survived to day 70

B1: F6: anti-CD19 antibody, VH SEQ ID NO: 12, VL SEQ ID NO: 14 (antibody, V domains shown)
VH: EVQLVQSGAEVKKPGESLKISCKGSGYSFTSYWIGWVRQMPGKGLEWMGIIYPGDSDTRYSPSFQGQVTISADKSISTAYLQWSSLKASDTAMYYCARVWYYDFWSGADAFDIWGQGTLVTVSS
VL: EIVMTQSPATLSVSPGERATLSCRASQSVSSNLAWYQQKPGQAPRLLIYGASTRATGIPARFSGSGSGTEFTLTISSLQSEDFAVYYCQQGSLEAPQTFGQGTKVEIK
**Q.** Which “cross-reactivity with cynomolgus CD19” value (cynomolgus CD19) does the source give for B1 here?
**A.** The value was “slightly cross-reactive”.

B2: 9G8: anti-CD19 antibody, VH SEQ ID NO: 6, VL SEQ ID NO: 10 (antibody, V domains shown)
VH: EVQLVQSGAEVKKPGESLKISCKGSGYSFTSYWIGWVRQMPGKGLEWMGIIYPGDSDTRYSPSFQGQVTISADKSISTAYLQWSSLKASDTAMYYCARGVSGIYNLHGFDIWGQGTLVTVSS
VL: DIQMTQSPSSLSASVGDRVTITCRASQSISSYLNWYQQKPGKAPKLLIYAASSLQSGVPSRFSGSGSGTDFTLTISSLQPEDFATYYCQQGRFGSPFTFGQGTKVEIK
**Q.** For B2, which “cross-reactivity with cynomolgus CD19” value (cynomolgus CD19) is on record?
**A.** Its value is “clearly cross-reactive”.

B3: 7F11: anti-CD19 antibody, VH SEQ ID NO: 6, VL SEQ ID NO: 8 (antibody, V domains shown)
VH: EVQLVQSGAEVKKPGESLKISCKGSGYSFTSYWIGWVRQMPGKGLEWMGIIYPGDSDTRYSPSFQGQVTISADKSISTAYLQWSSLKASDTAMYYCARGVSGIYNLHGFDIWGQGTLVTVSS
VL: DIQMTQSPSSLSASVGDRVTITCRASQSISSYLNWYQQKPGKAPKLLIYAASSLQSGVPSRFSGSGSGTDFTLTISSLQPEDFATYYCQQGMWDNPFTFGQGTKVEIK
**Q.** B3 was tested. Which “cross-reactivity with cynomolgus CD19” value (cynomolgus CD19) did it give?
**A.** The value was “slightly cross-reactive”.

B4: 5F5: anti-CD19 antibody, VH SEQ ID NO: 2, VL SEQ ID NO: 4 (antibody, V domains shown)
VH: EVQLVQSGAEVKKPGESLKISCKGSGYSFTSYWIGWVRQMPGKGLEWMGIIYPGDSDTRYSPSFQGQVTISADKSISTAYLQWSSLKASDTAMYYCARGISGIYNLHGFDIWGQGTLVTVSS
VL: DIQMTQSPSSLSASVGDRVTITCRASQSISSYLNWYQQKPGKAPKLLIYAASSLQSGVPSRFSGSGSGTDFTLTISSLQPEDFATYYCQQASLDSPLTFGQGTKVEIK
**Q.** B4 was tested. Which “cross-reactivity with cynomolgus CD19” value (cynomolgus CD19) did it give?
**A.** The value was “slightly cross-reactive”.

B5: 10D8: anti-CD19 antibody, VH SEQ ID NO: 20, VL SEQ ID NO: 22 (antibody, V domains shown)
VH: QVQLVQSGAEVKKPGSSVKVSCKASGGTFSSYAISWVRQAPGQGLEWMGGIIPIFGTANYAQKFQGRVTITADESTSTAYMELSSLRSEDTAVYYCARDRGYDYVWGSYRYGAFDIWGQGTLVTVSS
VL: QSALTQPASVSGSPGQSITISCTGTSSDVGGYNYVSWYQQHPGKAPKLMIYEVSNRPSGVSNRFSGSKSGNTASLTISGLQAEDEADYYCSSYDVWVPHMVFGGGTKLTVL
**Q.** Which results are given for B5?
**A.** cross-reactivity with cynomolgus CD19 (cynomolgus CD19): did not bind; binding profile Nalm6 versus Raji cells [2]: bind better to Nalm6 than to Raji cells

B6: 7F1: anti-CD19 antibody, VH SEQ ID NO: 16, VL SEQ ID NO: 18 (antibody, V domains shown)
VH: EVQLVQSGAEVKKPGESLKISCKGSGYSFTSYWIGWVRQMPGKGLEWMGIIYPGDSDTRYSPSFQGQVTISADKSISTAYLQWSSLKASDTAMYYCARGDYWTGFAYWGQGTLVTVSS
VL: QSVLTQPPSVSAAPGQKVTISCSGSSSNIGNNYVSWYQQLPGTAPKLLIYDNNKRPSGIPDRFSGSKSGTSATLGITGLQTGDEADYYCGTWDLGWNSVFGGGTKLTVL
**Q.** B6 was tested. Which “cross-reactivity with cynomolgus CD19” value (cynomolgus CD19) did it give?
**A.** The value was “did not bind”.

**Q.** What about the “binding profile Nalm6 versus Raji cells” value [2] of the same molecule?
**A.** The value was “bind better to Nalm6 than to Raji cells”.

Source: patent US11827703B2, “Compositions and methods related to anti-CD19 antibody drug conjugates” (LegoChem Biosciences, Inc., priority 2018, dated 2023)
